Patent publication US20020147145A1, “Materials and methods relating to the degradation of Cdc25A in response to DNA damage” (priority 2000, published 2002)
“Also recorded” adds a separate entry of the source. Non-standard residues stand in square brackets, D forms with d. Residues, ends and D or L forms follow the SMILES beside them. Nle = CCCC[C@H](N)C(=O)O

Experiments:
[1] = test system: Cdc25A; assay: Cdc25A protein level and turnover by immunoblotting in UV-irradiated U-2-OS cells; assay type: cell-based, human; parameters: UV-induced degradation of the endogenous Cdc25A protein: dose or concentration left out as unconfirmed
[2] = test system: Cdc25A; assay: Cdc25A phosphatase activity assay (activation of cyclin B1/Cdc2) on lysates of UV-irradiated U-2-OS cells; assay type: cell-based, human; parameters: Cdc25A-associated phosphatase activity after UV: dose or concentration left out as unconfirmed
[3] = target: Chk1 (Homo sapiens, UniProt O14757); conditions: UCN-01 1 μM added into the kinase reaction; Chk1 immunoprecipitated from U-2-OS lysates
Method: (§1) FIG. 3. […] Asynchronous SAOS-2 cells were irradiated with UV (15 J/m^2) or left untreated. Cells were harvested 2 hours later and lysates were subjected to immunoblotting and phosphatase activity measurements. […] After an additional 2 hours, cells were lysed and analyzed for levels and complexes of HACdc25A and Chk1 as indicated. […] Chk1 was immunoprecipitated from lysates of U-2-OS cells treated as in (B), and its activity determined in an in vitro kinase assay in the presence or absence of the Chk1 inhibitor, UCN-01 (1 μM), using purified GST-Cdc25A as a substrate.
(§2) Immunochemical techniques: Antibodies used in this study: Mouse monoclonal antibodies against human Cdc25A (DCS-122, DCS-124) and F-6 (Santa Cruz), Cdc25B (DCS-162, DCS-164) and Cdc25C (DCS-193) full length proteins fused to GST were generated by means of established hybridoma technology as described. Rabbit polyclonal antobody against Cdc25C (SC-327) were purchased from Santa Cruz. Antiserum against cdk2 Tyr15 was obtained from Calbiochem.

[4] = test system: tyrosine phosphatases including Cdc25
Text: as §2

[5] = test system: Chk1/Cdc25A; assay: Chk1/Cdc25A association (co-immunoprecipitation) in UV-irradiated U-2-OS cells transfected with HA-Cdc25A; assay type: cell-based, human; conditions: caffeine 10 mM, 1 hour preincubation before UV (15 J/m^2), lysed 2 hours later
Method: as §1, §2

[6] = UCN-01 at the time of UV irradiation (15 J/m^2), U-2-OS

Chk1, sequence (O14757 whole entry): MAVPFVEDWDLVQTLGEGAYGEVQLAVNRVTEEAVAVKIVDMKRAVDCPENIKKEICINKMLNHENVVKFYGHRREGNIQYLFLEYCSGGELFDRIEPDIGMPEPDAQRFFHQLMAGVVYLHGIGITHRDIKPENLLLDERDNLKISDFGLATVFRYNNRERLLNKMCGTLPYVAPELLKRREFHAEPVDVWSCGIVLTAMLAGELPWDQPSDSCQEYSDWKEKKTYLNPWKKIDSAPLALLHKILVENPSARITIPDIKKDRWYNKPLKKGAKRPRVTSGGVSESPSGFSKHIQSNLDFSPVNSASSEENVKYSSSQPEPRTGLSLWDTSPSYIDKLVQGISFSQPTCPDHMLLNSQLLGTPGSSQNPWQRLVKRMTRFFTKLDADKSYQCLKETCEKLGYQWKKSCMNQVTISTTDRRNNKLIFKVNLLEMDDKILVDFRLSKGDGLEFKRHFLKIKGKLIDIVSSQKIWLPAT

In the case of `CN[C@@H]1C[C@H]2O[C@@](C)([C@@H]1OC)n1c3ccccc3c3c4c(c5c6ccccc6n2c5c31)C(=O)N[C@@H]4O` [UCN-01], the “UV-induced degradation of the endogenous Cdc25A protein” value [1, 6] is reported as “completely abolished; also recorded: prevented”, the “Cdc25A-associated phosphatase activity after UV” value [2, 6] is reported as “allowed maintenance of high” and the “basal and UV-induced Chk1 kinase activities towards GST-Cdc25A” value [3] is reported as “completely inhibited”.
In the case of sodium vanadate, the “ability of mock-treated cell lysates to dephosphorylate and superactivate cyclin E/cdk2” value [4] is reported as “completely prevented”.
`Cn1c(=O)c2c(ncn2C)n(C)c1=O` [caffeine] was tested, and the “half-life of the Cdc25A protein after UV” value ([1]; caffeine prior to UV irradiation, compared to non-irradiated cells) was “restored” and the “UV-induced increase in Chk1/Cdc25A association” value [5] was “quantitatively prevented”.
`CCCC[C@@H](C=O)NC(=O)[C@H](CC(C)C)NC(=O)[C@H](CC(C)C)NC(C)=O` [LLnL] (Ac-Leu-Leu-[Nle]-aldehyde) was tested, and the “UV-induced reduction of Cdc25A protein level” value ([1]; LLnL 25 μg/ml added immediately after UV (15 J/m^2), U-2-OS (endogenous) and U-2-OS/B3C4 (ectopic Cdc25A), lysates 1 hour after UV) was “entirely prevented” and the “UV-induced reduction of Cdc25A phosphatase activity” value ([2]; LLnL 25 μg/ml added immediately after UV (15 J/m^2), endogenous and ectopic Cdc25A, 1 hour after UV) was “entirely prevented”.
